Measured values published in patent US5766620A, “Buccal delivery of glucagon-like insulinotropic peptides” (TheraTech, Inc., priority 1995, dated 1998).
Where two headings read alike, the source gives them in different places.

Assays:
clinical = test: clinical
Description: This example describes a double-blind, placebo-controlled, crossover comparison with random assignment to treatment sequence. […] Inclusion criteria for the volunteers were normal glucose tolerance, weight within 22<BMI<26, informed consent to participate in the study, and age between 20 and 60 years. Exclusion criteria were impaired glucose tolerance (2-hour glucose tolerance test; OGTT), gastrointestinal symptoms, ongoing medication or illness, acute infection, abnormal laboratory variables (hemoglobin, hematocrit, leucocytes, creatinine, bilirubin, calcium, potassium, sodium, alkaline phosphatase, gamma-GT, SGOT, SGPT, cholesterol, and triglycerides), and blood pressure greater than 185 mmHg systolic and/or 90 mmHg diastolic.
Subject numbers were allotted to the subjects in the order in which they were enrolled in the study. The number allotted to each subject determined the treatment sequence received. Subjects receiving treatment sequence 1 were treated with drug followed by placebo, and subjects receiving treatment sequence 2 were treated with placebo followed by drug.
Subjects were instructed to fast the night before a treatment. At the clinic, the subjects were given either a drug-containing bilayer tablet or placebo. […] Standard safety variables were determined under fasting conditions before each experiment. Blood glucose was monitored frequently and glucose infusion was available in case of hypoglycemia (<2.5 mmol/L). […]
(§1) Blood samples were taken for pharmacokinetic analysis 10 minutes before application of the drug, and at 5, 10, 15, 20, 25, 30, 40, 50, 60, 75, 90, 120, 150, 180, 210, 240, and 270 minutes and 6 and 8 hours after application of the drug. […] The peptide content of bilayer tablet samples was also analyzed by HPLC. […]
The data summarized in FIG. 7 were analyzed by AUC to provide an estimate of relative bioavailability by buccal administration as compared to subcutaneous administration.

blood glucose = test: Blood glucose after buccal bilayer tablet, double-blind placebo-controlled crossover; conditions: 400 μg buccal bilayer tablet, fasting healthy volunteers
Description: This example describes a double-blind, placebo-controlled, crossover comparison with random assignment to treatment sequence. […] Inclusion criteria for the volunteers were normal glucose tolerance, weight within 22<BMI<26, informed consent to participate in the study, and age between 20 and 60 years. […]
Subject numbers were allotted to the subjects in the order in which they were enrolled in the study. The number allotted to each subject determined the treatment sequence received. […]
Subjects were instructed to fast the night before a treatment. […] Standard safety variables were determined under fasting conditions before each experiment. Blood glucose was monitored frequently and glucose infusion was available in case of hypoglycemia (<2.5 mmol/L). […]
as §1

[1] = intravenous infusion, fasting individuals, published data; cited from earlier work
[2] = Published subcutaneous administration of GLP-1 to fasting subjects (Nauck, FIG. 8); assay type: in vivo, human
Description: A study by M. A. Nauck of subcutaneous administration of GLP-1 to fasting subjects illustrates changes in the pharmocokinetics with dose (FIG. 8). This could be due to changes in bioavailability with dose, changes in clearance with dose, or a combination of both effects.

[3] = after administration, 400 μg buccal bilayer tablet

| Compound | time of onset of sharp rise of plasma GLP-1(7-36)amide level (clinical; [3]) [min] | time until which elevated GLP-1(7-36)amide levels remain in the blood (clinical; [3]) | F rel (clinical; human, plasma, 400 ug) [%] | hypoglycemia (blood glucose) | clearance [1] [L/h/kg] | bioavailability by subcutaneous administration relative to intravenous administration ([2]; subcutaneous) [%] | clearance ([2]; subcutaneous administration, regression analysis of all results) |
| --- | --- | --- | --- | --- | --- | --- | --- |
| CC[C@H](C)[C@H](NC(=O)[C@H](Cc1ccccc1)NC(=O)[C@H](CCC(=O)O)NC(=O)[C@H](CCCCN)NC(=O)[C@H](C)NC(=O)[C@H](C)NC(=O)[C@H](CCC(N)=O)NC(=O)CNC(=O)[C@H](CCC(=O)O)NC(=O)[C@H](CC(C)C)NC(=O)[C@H](Cc1ccc(O)cc1)NC(=O)[C@H](CO)NC(=O)[C@H](CO)NC(=O)[C@@H](NC(=O)[C@H](CC(=O)O)NC(=O)[C@H](CO)NC(=O)[C@@H](NC(=O)[C@H](Cc1ccccc1)NC(=O)[C@@H](NC(=O)CNC(=O)[C@H](CCC(=O)O)NC(=O)[C@H](C)NC(=O)[C@@H](N)Cc1c[nH]cn1)[C@@H](C)O)[C@@H](C)O)C(C)C)C(=O)N[C@@H](C)C(=O)N[C@@H](Cc1c[nH]c2ccccc12)C(=O)N[C@@H](CC(C)C)C(=O)N[C@H](C(=O)N[C@@H](CCCCN)C(=O)NCC(=O)N[C@@H](CCCNC(=N)N)C(N)=O)C(C)C [GLP-1(7-36)amide] | ≤ 5 | about 150 minutes | 27 | does not result in hypoglycemia |  |  |  |
| GLP-1: GLP-1 given intravenously (7-37 and 7-36 amide) or subcutaneously to fasting subjects in published studies used for comparison |  |  |  |  | ~0.9 | 38 | about 40 ml/min/kg |
